Values after ≈ are worked out from the molar mass of the structure shown.
Experiments:
Mus musculus = settings: chronic; duration: 18 months; M; body weight
Chrysoperla externa = settings: not reported; mortality
Tagia sp. = settings: acute; duration: 14 days; mortality
Colinus virginianus = settings: acute; oral; mortality
Typhlodromus pyri = settings: not reported; mortality
Daphnia magna = settings: chronic/long-term; duration: 21 days; reproduction
Bibionidae = settings: chronic/long-term; duration: 28 days; development
Oncorhynchus mykiss = settings: for NOEC: chronic/long-term
Pimephales promelas = settings: chronic/long-term; duration: 36 days; time to hatch
Apis mellifera = settings: acute, mortality

In the case of `CNC(=O)/C(=N/OC)c1ccccc1COc1cc(C)ccc1C` [Dimoxystrobin], the NOAEL (Mus musculus) is reported as 4 mg/kg-day, the LC50 (Rattus norvegicus; acute, oral, diet, mortality) is reported as 5 mg/kg-day and the NOAEL (Rattus norvegicus; short-term, duration: 7 days, clinical chemistry) is reported as 4 mg/kg-day. The LEL (Chrysoperla externa) was 200 g/ha, the LC50 (Tagia sp.) was 47.3 mg/kg and the LD50 (Colinus virginianus) was over 2000 mg/kg. The NOEC (Anas platyrhynchos; reproductive) was 36 mg/kg-day, the LC50 (Anas platyrhynchos; short-term, oral, feed, mortality) was over 232 mg/kg-day and the LEL (Typhlodromus pyri) was 200 g/ha. For the same molecule, the NOEC (Daphnia magna) was 0.0125 mg/L, the NOEC (Bibionidae) was 0.01 mg/L and the LC50 (Oncorhynchus mykiss; acute, duration: 96 hours, mortality) was 0.0434 mg/L (≈ 0.133 µM). It also gave an NOEC (Oncorhynchus mykiss; duration: 28 days, mortality) of 0.01 mg/L, an NOEC (Oncorhynchus mykiss; duration: 97 days, behavior) of 0.000316 mg/L and an NOEC (Pimephales promelas) of 0.016 mg/L. The LD50 (Apis mellifera; dermal) was over 100 µg/piece and the LD50 (Apis mellifera; duration: 48 hours, oral, unspecified) was over 79.4 µg/piece.
